The source of these data is patent US8637237B2, “Methods, compositions, and systems for the identification of species-specific or developmental stage-specific insecticides” (The University of North Carolina at Greensboro, priority 2003, dated 2014).

This assay has as its target T1, GRdEcR/RXR (Drosophila melanogaster, UniProt P34021, E261P/P331L/Q260P/V259R).
T1 construct: ligation of a Not I-Bam HI fragment containing the DBD and LBD of a modified EcR cDNA, EcRnx; expressed in transfected cells; host or cells: CHO
T1 sequence (P34021 259-878 V259R/Q260P/E261P/P331L limits assumed): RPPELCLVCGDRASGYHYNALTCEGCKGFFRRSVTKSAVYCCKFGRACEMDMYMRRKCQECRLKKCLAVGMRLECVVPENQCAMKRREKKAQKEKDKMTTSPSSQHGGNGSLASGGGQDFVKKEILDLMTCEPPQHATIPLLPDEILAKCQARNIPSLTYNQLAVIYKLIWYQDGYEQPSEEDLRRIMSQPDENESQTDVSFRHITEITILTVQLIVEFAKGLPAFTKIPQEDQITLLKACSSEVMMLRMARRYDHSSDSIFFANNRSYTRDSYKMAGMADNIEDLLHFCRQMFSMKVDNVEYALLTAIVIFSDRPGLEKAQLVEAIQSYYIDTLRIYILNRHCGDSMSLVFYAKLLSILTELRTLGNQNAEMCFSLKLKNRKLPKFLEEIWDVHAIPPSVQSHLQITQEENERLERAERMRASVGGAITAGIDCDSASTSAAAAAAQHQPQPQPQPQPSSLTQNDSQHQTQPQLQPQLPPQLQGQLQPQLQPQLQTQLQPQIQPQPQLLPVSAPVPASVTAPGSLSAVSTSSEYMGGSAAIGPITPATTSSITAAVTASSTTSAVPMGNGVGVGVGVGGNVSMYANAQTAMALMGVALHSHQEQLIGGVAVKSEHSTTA
T1 sequence (P28700 1-467 partner): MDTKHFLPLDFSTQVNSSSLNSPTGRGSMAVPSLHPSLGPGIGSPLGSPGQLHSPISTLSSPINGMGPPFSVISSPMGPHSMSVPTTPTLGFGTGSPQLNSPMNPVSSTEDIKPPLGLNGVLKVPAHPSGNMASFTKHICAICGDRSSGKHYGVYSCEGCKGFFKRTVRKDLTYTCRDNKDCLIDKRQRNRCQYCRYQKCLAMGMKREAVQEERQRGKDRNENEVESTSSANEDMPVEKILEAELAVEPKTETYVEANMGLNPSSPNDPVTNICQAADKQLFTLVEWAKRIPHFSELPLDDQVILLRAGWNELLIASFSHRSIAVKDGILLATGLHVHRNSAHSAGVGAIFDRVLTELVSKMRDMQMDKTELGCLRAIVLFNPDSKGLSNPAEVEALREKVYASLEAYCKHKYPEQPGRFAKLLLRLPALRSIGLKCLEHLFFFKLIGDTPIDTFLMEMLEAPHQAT
Put plainly: GRdEcR (GEcEc) chimera with RXR, (EcRE)5-ΔMTV reporter in CHO cells. The format is cell-based. As to the method:
These experiments employed a mammalian cell culture system using Chinese hamster ovary cells (CHO) to evaluate the transcriptional function of Drosophila melanogaster EcR and USP using methods described previously (U.S. Patent Application Publication No: 2005/0049230; Henrich et al, 2003). Cells were seeded in 6-well polypropylene culture plates (Falcon) with 10^5 cells per well on the day prior to transfection. Transfection was subsequently performed using either calcium phosphate (Kitareewan et al., 1996, Mol. Biol. Cell, 7:1153-1196) or a GenePorter reagent (Gene Therapy Systems, Inc; San Diego, Calif.) following manufacturer's protocols. Each well received 1.25 μg of (EcRE)5-ΔMTV-CAT (five copies of the hsp27 EcRE inserted into an mouse mammary tumor virus (MTV) promoter upstream of the chloramphenicol acetyltransferase (CAT) gene) or (EcRE)5-ΔMTV-LUC (the same promoter attached to firefly luciferase), 1.25 μg of pCH111 (SV40 early promoter linked to the β-galactosidase gene) to normalize CAT activity, and 0.25 μg of each expression plasmid (EcR, FXR, RXR, USP) that was tested. The cells were incubated with plasmid DNA for seven hours and then washed with 1×PBS. Muristerone A (murA; Alexis Biochemicals) or 20-hydroxyecdysone (20E; Sigma) dissolved in ethanol to a concentration of 10 mM was diluted as necessary to the final assay concentration (FAC) in 2 ml of fresh incubation medium that was then applied to the cells. Similarly, JHIII (Sigma) was dissolved in dimethyl sulfoxide (DMSO) to a concentration of […] and diluted into the incubation medium to its final assay concentration (20, 40, 80, 160 μM). […] A corresponding volume of ethanol and DMSO were added to control cells for all experiments. For all experiments, the cells were allowed to incubate with the medium for 24 hours before collection and cell lysates were prepared by described methods (Kitareewan et al., 1996). Both β-galactosidase and CAT reporter activity were measured based on previously used methods (Kitareewan et al, 1996). Luciferase assays using luciferrin followed the specifications of the manufacturer.
Transcriptional activity, measured as ^14C-chloramphenicol counts (for measuring CAT activity) or relative luciferase activity (RLU) was quantified for each cell lysate. The counts were then normalized by adjusting for differences in β-galactosidase activity, since β-galactosidase expression is controlled by a constitutive promoter and provides an estimate of cell mass. Data were normalized as fold-induction based on differences in reporter gene activity between hormonally treated and control cells.
In an initial series of studies, a GRdEcR chimera that consists of the rat glucocorticoid receptor (GR) activation domain attached to the EcR DBD and LBD (FIG. 1) was cotransfected along with mRXRα into CHO cells. The response of transfected cells to murA was measured using a (EcRE)5-ΔMTV-CAT reporter plasmid that carries five tandem repeats of the hsp27 EcRE linked to the MTV (mouse mammary tumor virus) promoter and the chloramphenicol acetyltransferase gene (CAT).
The prominent candidate for this JH-responsive macromolecule in insects is the structurally-related ecdysone receptor (EcR). Like FXR, EcR heterodimerizes with RXR and binds to the hsp27 ecdysone-responsive DNA element (Forman et al., 1995), but distinctively activates transcription in response to muristerone A (MurA or MUR), a synthetic ecdysone (Yao et al., 1992). […] In the experiments shown in FIG. 15A, muristerone A (MUR) was added at the indicated doses in ethanol vehicle, and increasing amounts of JH III (12, 25, or 50 μM) were added (underlying triangles). Numbers over bars indicate the ratio of the GEcEc-dependent activity produced by 50 μM JH III in the presence of the indicated dose of MUR to the activity produced by MUR alone. Relative light units (RLU) from firefly luciferase in cell lysates are expressed relative to renilla luciferase (Promega).

Consider `COC(=O)/C=C(\C)CC/C=C(\C)CC[C@H]1OC1(C)C` [JHIII, juvenile hormone III], for which the “increase of MurA-induced GEcEc-dependent activity by JH III” value (80 μM JH III added to MurA) was 3 times. Besides, for the setting “80 μM JH III, no MurA”, the “response of GEcEc to JH III alone” value is listed as “failed to respond”. The “potentiation of murA response by JHIII” value (20, 40, 80, 160 μM JHIII at submaximal murA (0.1 μM and 1 μM)) was “potentiated the response of murA in a dose-dependent manner”. Further, the “MurA + JHIII (JHIII potentiation)” value (GRdEcR/RXR, 0.1 μM murA + 80 μM JHIII) is recorded as “+ ((+) indicates observed potentiation that exceeds 2-fold above the levels observed with ecdysteroid alone)”. For the same compound, under “no murA”, the “effect of JHIII alone on transcription” value is reported as “did not show an effect”.

For `CC(C)CC[C@@H](O)[C@](C)(O)[C@H]1CC[C@@]2(O)C3=CC(=O)[C@]4(O)C[C@@H](O)[C@@H](O)C[C@]4(C)[C@H]3[C@H](O)C[C@]12C` [murA, muristerone A], the “lowest murA dosage evoking a detectable response” value (GRdEcR + RXR, CAT reporter) is 0.1 µM. The “MurA (inducibility)” value (GRdEcR/RXR, 0.1 μM murA) is reported as “+ ((+) designates a change in transcriptional level that exceeds 2.5-fold)”.

With juvocimene, where the note is “25 μM test compound, 0.2 μM muristerone A”, the “potentiation of MUR-inducible GEcEc-dependent activity” value was “between two and four times”.
